# From a melting point compilation (Tetko et al.; mined from patent text by program, amines drawn as free bases though some values may be those of a salt)
row,SMILES,melting point
1,CCOC(=O)c1c(C(=O)Nc2ccc(Cl)cc2C)cccc1[N+](=O)[O-],164 to 165 °C
2,N#Cc1cccc2[nH]c(C(=O)O)cc(=O)c12,278 to 279 °C
3,CCN1CCCC1=NC(=O)Nc1c(C)cccc1C,120 to 122 °C
4,O=C(O)CCCNC(=O)COc1ccccc1,91 to 94 °C
5,CC(=O)OCN1C(=O)CON(C(C)=O)C1c1ccccc1 (stereo not drawn),75 to 76 °C
6,CC(C)=NOCc1nc2c(N)nc3cccnc3c2n1CCCNC(=O)NC1CCCCC1,207 to 208 °C
7,COc1ccc(C(C)C)cc1-c1cc(C(=O)NC2CCN(C(=O)OC(C)(C)C)CC2)c(OCc2ccccc2)cc1OCc1ccccc1,168 to 170 °C
8,CCOC(=O)NC(=O)C(Cl)C(C)=O (stereo not drawn),69.5 to 70 °C
9,COc1cc(C(C)C)c2c(c1)S(=O)(=O)N(COc1cc(C#N)nn1-c1ccccc1)C2=O,114 to 116 °C
10,CCOc1c(N)c2c(c(OCC)c1OCC)C(C1c3c(cc4c(c3OC)OCO4)CCN1C)OC2=O (stereo not drawn),180 to 182 °C
11,COc1ccc2nc3ccc(C(=O)N(C)C)cn3c(=O)c2c1,190 to 196 °C
12,Cc1cc2cc(CN3CCCC3)cnc2cc1NC(=O)c1ccc(-c2ccccc2)c(F)c1,167 to 170 °C
13,Cc1cn(C2CC(O)(COCc3ccccc3)C(CO)O2)c(=O)n(COCc2ccccc2)c1=O (stereo not drawn),83 to 84 °C
14,Cc1c(O)c(C=O)c2nc3c(O)ccc(C(=O)NCCN(C)C)c3nc2c1O,> 250 °C
15,CCOC(=O)c1cc(-c2ccc(Cl)cc2)n(O)c1C(=O)OCC,82 to 84 °C
16,CCCn1c(=O)c2[nH]c(/C=C/c3ccc(OC)cc3)nc2n(CCC)c1=O,281 to 284 °C
17,NC1=NN(c2cccc(Cl)c2)C(c2ccccc2)C1 (stereo not drawn),164 to 165 °C
18,C#CCOc1c(OC)cc(/C=C/C(=O)/C=C/c2cc(OC)c(OC)c(OC)c2)cc1OC,118 to 120 °C
19,COc1ccc(CC(=O)Nc2c(C)c(C)c3oc(C)c(-c4ccc(C(C)C)cc4)c3c2C)cc1,202 to 204 °C
20,CCC(=C[N+](=O)[O-])NCc1ccc(Cl)nc1,95 to 98 °C
21,CC/C=C\CCC(C#N)(C#N)Cc1ccc(Cl)cc1,44.8 °C
22,N#CC(Cl)Cc1ccccc1C(=O)O (stereo not drawn),116 to 117 °C
23,CC(=O)Nc1ccc(Oc2c([N+](=O)[O-])cc(C(=O)O)cc2S(=O)(=O)NC(C)=O)cc1,305 to 306 °C
24,O=C(Cc1ccncc1)[N+]1([O-])CCC(C2c3ccc(Cl)cc3CCc3cccnc32)CC1 (stereo not drawn),125 to 126 °C

row,SMILES,melting point
1,O=C(O)c1cn(-c2cccc(OC(F)(F)F)c2)cn1,173 to 175 °C
2,CCCc1nc2c(N)nc3cccnc3c2n1CCCCCC(N)=O,216 to 218 °C
3,Cc1cc(F)ccc1-n1c(CF)nc2ccc(N)cc2c1=O,193 to 196 °C
4,CCOC(=O)Nn1cccc1C(=O)c1ccccc1F,78 to 80 °C
5,CC(C)n1nc(C(=O)NCC2CCN(CC(=O)Nc3ccc(OCc4ccccc4)cc3)CC2)c2ccccc21,113 to 115 °C
6,O=C1Cc2cc(F)ccc2C(c2ccc(Cl)cc2)N1 (stereo not drawn),160 to 161 °C
7,CCOc1ccc2c(=O)cc(-c3ccccc3O)oc2c1,295 to 297 °C
8,O=C(CCCCCN1CCC(c2cccc(C(F)(F)F)c2)CC1)N1Cc2ccccc2C1,71 °C
9,Cc1cc(-c2cnn3c(C(F)(F)F)cc(-c4ccc(C(F)(F)F)c(C(F)(F)F)c4)nc23)ccn1,223 °C
10,C=Cc1c(C(=O)OC)nc(-c2ccc(Cl)cc2)c(F)c1N,81 to 83 °C
11,CCn1nc(C(C)C)c2c1C(=O)NCC(c1ccc(O)cc1)=N2,230 °C
12,COc1ccc(COC(=O)C2=C3[C@@H](C)[C@H](C)[C@@H]3S[C@@H]3[C@H](NC(=O)Cc4ccccc4)C(=O)N23)cc1,172 to 173 °C
13,O=C(O)c1cc(Cl)cc2cc(-c3ccccc3)oc12,255 to 258 °C
14,COc1cc(C(O)C#Cc2cnc(N)nc2N)cc(OC)c1OC (stereo not drawn),203 to 205 °C
15,CN(C)C(=O)CCCOc1ccc2c(c1)C[C@@H](NC(=O)OC(C)(C)C)CC2,97 to 101 °C
16,CCOC(=O)CC[C@H](NC(=O)c1ccc(C(COC2CCCCO2)CC2CNc3nc(NC(=O)C(C)(C)C)nc(O)c3C2)cc1)C(=O)OCC (stereo partly drawn),183 to 186 °C
17,CC(C)CC(=O)Nc1cccc(-c2ccnc3c(-c4cccc(C=O)c4)cnn23)c1,163 to 165 °C
18,O=C(Nc1cnc(-c2ccccc2)[nH]c1=O)OCc1ccccc1,217 to 219 °C
19,CN(c1nnc(C(F)(F)F)s1)C1CCN(Cc2cccc(F)c2)CC1,80.5 °C
20,Cc1cc(N2CCC[C@H]2COc2ccc(CC3SC(=O)NC3=O)cc2)nc2ccccc12 (stereo partly drawn),95 to 97 °C
21,COc1cccc(C=NNC(=O)OC(C)(C)C)c1,136 to 137 °C
22,CCC(=O)c1ccsc1N,140 to 142 °C
23,COc1ccccc1C1(N)C(=O)Nc2ccc(Cl)cc21 (stereo not drawn),220 to 224 °C
24,CC(C(N)=O)c1ccc2c(c1)Sc1ncccc1CC2=O (stereo not drawn),161 to 162 °C
